In ChEMBL document CHEMBL3393036, “Tetra-substituted pyridinylimidazoles as dual inhibitors of p38α mitogen-activated protein kinase and c-Jun N-terminal kinase 3 for potential treatment of neurodegenerative diseases” (J Med Chem, 2015):

What was measured:
[1] = target: Casein kinase I isoform gamma-3 (Homo sapiens) (UniProt Q9Y6M4); test: Inhibition of CSNK1G3 (CK1) (unknown origin) at 5.5 uM by Caliper Mobility Shift Assay
[2] = target: Tyrosine-protein kinase Lyn (Homo sapiens) (UniProt P07948); test: Inhibition of LYN (unknown origin) at 5.5 uM by Caliper Mobility Shift Assay
[3] = target: Serine/threonine-protein kinase WNK1 (Homo sapiens) (UniProt Q9H4A3); test: Inhibition of WNK1 (unknown origin) at 5.5 uM by Caliper Mobility Shift Assay
[4] = target: Protein kinase C theta type (Homo sapiens) (UniProt Q04759); test: Inhibition of PRKCQ (unknown origin) at 5.5 uM by Caliper Mobility Shift Assay
Protein kinase C theta type (Homo sapiens), sequence (Q04759 whole entry, looked up): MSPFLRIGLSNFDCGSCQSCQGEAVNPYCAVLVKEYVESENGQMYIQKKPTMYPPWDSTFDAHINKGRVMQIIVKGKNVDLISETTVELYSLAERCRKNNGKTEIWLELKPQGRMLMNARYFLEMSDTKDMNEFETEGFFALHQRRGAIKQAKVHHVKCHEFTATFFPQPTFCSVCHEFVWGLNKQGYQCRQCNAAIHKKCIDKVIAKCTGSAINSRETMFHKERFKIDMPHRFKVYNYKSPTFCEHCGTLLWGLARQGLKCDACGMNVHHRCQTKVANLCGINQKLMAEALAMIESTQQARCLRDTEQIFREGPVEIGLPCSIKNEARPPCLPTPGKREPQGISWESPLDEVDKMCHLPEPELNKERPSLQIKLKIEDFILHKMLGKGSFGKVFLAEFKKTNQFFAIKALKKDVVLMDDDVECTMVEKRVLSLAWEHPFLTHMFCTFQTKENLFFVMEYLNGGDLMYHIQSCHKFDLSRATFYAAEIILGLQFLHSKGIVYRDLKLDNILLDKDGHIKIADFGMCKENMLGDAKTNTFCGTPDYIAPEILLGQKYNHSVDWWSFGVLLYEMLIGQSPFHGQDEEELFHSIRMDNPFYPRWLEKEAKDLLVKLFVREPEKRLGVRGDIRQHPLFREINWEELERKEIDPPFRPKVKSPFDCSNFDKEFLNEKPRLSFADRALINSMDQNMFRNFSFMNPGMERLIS

[5] = target: MAP kinase-activated protein kinase 2 (Homo sapiens) (UniProt P49137); test: Inhibition of MK2 (unknown origin) at 5.5 uM by Caliper Mobility Shift Assay
[6] = target: Ribosomal protein S6 kinase beta-2 (Homo sapiens) (UniProt Q9UBS0); test: Inhibition of S6K (unknown origin) at 5.5 uM by Caliper Mobility Shift Assay
Ribosomal protein S6 kinase beta-2 (Homo sapiens), sequence (Q9UBS0 whole entry): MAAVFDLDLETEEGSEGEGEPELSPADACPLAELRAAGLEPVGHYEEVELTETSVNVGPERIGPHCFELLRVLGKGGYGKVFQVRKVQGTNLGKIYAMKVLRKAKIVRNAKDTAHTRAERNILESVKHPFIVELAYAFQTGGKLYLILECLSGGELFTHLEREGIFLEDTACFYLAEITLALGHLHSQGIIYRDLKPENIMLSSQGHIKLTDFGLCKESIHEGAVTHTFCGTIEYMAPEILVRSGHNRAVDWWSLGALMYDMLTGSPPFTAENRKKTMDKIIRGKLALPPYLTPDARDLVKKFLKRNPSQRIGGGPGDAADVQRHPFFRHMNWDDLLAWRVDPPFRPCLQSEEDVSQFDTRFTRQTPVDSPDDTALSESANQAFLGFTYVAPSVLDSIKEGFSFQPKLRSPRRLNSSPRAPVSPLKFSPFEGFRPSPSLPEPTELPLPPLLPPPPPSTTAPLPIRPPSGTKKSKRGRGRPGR

[7] = target: ALK tyrosine kinase receptor (Homo sapiens) (UniProt Q9UM73); test: Inhibition of ALK (unknown origin) at 5.5 uM by Caliper Mobility Shift Assay
[8] = target: T1, Serine/threonine-protein kinase 4 (Homo sapiens) (UniProt Q13043); test: Inhibition of STK4 (unknown origin) at 5.5 uM by Caliper Mobility Shift Assay
T1 sequence (whole entry): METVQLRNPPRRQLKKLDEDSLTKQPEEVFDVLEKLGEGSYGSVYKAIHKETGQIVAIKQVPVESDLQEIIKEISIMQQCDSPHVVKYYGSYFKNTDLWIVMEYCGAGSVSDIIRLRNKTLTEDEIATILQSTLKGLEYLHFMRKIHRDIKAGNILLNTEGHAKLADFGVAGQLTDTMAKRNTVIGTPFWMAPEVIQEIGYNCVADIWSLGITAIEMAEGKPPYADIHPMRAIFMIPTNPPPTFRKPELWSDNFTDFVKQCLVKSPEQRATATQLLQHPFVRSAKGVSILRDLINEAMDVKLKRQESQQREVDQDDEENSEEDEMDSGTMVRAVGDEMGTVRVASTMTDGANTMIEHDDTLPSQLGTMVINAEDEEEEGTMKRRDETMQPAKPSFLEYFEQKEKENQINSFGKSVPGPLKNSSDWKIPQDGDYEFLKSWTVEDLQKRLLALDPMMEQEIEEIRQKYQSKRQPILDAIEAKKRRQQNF

[9] = target: Vascular endothelial growth factor receptor 2 (Homo sapiens) (UniProt P35968); test: Inhibition of KDR (unknown origin) at 5.5 uM by Caliper Mobility Shift Assay
[10] = target: Proto-oncogene tyrosine-protein kinase receptor Ret (Homo sapiens) (UniProt P07949); test: Inhibition of RET (unknown origin) at 5.5 uM by Caliper Mobility Shift Assay
Proto-oncogene tyrosine-protein kinase receptor Ret (Homo sapiens), sequence (P07949 whole entry): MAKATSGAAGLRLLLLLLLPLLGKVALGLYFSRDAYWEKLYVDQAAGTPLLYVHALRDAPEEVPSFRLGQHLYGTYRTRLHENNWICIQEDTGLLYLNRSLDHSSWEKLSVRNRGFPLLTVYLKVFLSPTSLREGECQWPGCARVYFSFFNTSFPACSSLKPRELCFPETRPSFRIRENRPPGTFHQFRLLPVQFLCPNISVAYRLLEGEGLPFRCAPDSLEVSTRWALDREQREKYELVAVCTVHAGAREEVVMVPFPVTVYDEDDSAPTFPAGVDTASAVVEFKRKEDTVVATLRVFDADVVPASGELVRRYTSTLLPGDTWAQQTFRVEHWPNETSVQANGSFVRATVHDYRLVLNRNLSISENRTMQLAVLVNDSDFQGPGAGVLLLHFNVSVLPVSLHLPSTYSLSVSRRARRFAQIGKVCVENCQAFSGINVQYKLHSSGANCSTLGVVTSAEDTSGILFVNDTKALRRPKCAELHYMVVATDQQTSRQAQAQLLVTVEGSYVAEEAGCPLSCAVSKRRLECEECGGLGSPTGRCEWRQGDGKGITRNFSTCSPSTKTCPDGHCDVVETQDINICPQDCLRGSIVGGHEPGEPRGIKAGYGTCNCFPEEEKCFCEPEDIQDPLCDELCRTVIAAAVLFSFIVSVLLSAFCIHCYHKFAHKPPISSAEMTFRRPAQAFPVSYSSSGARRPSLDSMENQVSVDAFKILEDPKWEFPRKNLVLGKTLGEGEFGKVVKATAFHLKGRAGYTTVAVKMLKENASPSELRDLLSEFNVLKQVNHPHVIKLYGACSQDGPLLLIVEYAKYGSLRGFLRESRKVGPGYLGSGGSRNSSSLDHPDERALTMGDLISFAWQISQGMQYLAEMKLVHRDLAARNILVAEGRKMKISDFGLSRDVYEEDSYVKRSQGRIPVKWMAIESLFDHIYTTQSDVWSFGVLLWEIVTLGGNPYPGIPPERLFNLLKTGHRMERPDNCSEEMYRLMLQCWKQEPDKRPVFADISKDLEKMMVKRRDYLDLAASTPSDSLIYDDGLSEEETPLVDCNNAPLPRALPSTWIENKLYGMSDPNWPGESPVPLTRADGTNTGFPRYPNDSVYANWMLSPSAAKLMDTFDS

[11] = target: T2, Ephrin type-B receptor 4 (Homo sapiens) (UniProt P54760); test: Inhibition of EPHB4 (unknown origin) at 5.5 uM by Caliper Mobility Shift Assay
T2 sequence (whole entry): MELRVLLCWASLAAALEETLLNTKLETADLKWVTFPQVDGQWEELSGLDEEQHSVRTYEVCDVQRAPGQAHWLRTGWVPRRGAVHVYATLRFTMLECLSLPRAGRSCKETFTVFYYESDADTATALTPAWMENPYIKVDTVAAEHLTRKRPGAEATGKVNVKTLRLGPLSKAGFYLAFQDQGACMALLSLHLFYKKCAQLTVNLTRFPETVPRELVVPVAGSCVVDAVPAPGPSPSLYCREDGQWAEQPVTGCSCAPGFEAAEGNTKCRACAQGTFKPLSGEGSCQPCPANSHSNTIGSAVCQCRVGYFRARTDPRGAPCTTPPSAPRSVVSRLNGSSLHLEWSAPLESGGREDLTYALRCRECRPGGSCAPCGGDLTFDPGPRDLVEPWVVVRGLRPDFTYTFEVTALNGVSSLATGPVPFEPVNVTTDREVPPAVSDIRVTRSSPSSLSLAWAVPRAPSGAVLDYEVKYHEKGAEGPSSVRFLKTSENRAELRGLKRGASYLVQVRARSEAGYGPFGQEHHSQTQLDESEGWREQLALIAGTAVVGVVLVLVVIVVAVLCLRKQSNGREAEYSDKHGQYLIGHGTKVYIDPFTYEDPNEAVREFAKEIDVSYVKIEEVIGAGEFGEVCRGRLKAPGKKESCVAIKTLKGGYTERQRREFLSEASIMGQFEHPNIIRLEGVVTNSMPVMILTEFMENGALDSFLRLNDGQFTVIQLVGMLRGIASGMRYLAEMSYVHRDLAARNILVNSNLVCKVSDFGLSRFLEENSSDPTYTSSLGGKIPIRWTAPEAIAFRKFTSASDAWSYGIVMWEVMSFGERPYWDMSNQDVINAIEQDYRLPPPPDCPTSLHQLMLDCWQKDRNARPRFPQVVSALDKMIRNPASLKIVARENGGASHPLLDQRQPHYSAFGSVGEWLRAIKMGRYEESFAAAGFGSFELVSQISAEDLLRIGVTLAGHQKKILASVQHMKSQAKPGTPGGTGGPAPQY

[12] = target: Tyrosine-protein kinase JAK2 (Homo sapiens) (UniProt O60674); test: Inhibition of JAK2 (unknown origin) at 5.5 uM by Caliper Mobility Shift Assay
[13] = target: Cyclin-dependent kinase 2 (Homo sapiens) (UniProt P24941); test: Inhibition of CDK2 (unknown origin) at 5.5 uM by Caliper Mobility Shift Assay
[14] = organism: Homo sapiens; test: Inhibition of CDK1B (unknown origin) at 5.5 uM by Caliper Mobility Shift Assay
[15] = target: Receptor-type tyrosine-protein kinase FLT3 (Homo sapiens) (UniProt P36888); test: Inhibition of FLT3 (unknown origin) at 5.5 uM by Caliper Mobility Shift Assay
Receptor-type tyrosine-protein kinase FLT3 (Homo sapiens), sequence (P36888 whole entry): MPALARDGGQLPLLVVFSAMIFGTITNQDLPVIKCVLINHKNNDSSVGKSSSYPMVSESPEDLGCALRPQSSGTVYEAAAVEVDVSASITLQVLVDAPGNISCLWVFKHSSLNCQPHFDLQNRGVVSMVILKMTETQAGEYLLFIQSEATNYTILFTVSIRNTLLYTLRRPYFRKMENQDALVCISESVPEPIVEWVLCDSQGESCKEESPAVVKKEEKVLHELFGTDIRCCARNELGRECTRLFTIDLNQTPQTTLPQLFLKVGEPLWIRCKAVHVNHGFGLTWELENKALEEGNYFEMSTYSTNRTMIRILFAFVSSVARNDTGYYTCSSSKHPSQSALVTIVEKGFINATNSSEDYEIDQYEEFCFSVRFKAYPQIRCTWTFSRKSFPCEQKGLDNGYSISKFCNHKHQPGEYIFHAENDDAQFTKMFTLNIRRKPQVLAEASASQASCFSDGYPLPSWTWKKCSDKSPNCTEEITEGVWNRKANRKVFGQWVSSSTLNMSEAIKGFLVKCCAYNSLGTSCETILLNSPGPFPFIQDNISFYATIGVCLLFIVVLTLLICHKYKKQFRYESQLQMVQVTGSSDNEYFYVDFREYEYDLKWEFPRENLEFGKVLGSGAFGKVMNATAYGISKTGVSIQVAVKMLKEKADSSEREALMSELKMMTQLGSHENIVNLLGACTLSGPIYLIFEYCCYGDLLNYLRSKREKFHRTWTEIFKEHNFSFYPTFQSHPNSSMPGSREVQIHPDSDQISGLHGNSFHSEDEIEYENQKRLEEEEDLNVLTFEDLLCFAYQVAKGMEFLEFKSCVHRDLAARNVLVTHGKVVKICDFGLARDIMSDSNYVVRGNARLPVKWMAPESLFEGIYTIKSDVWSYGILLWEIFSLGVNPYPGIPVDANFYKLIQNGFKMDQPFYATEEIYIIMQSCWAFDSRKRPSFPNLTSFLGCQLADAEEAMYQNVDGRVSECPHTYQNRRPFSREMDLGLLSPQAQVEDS

[16] = target: Fibroblast growth factor receptor 2 (Homo sapiens) (UniProt P21802); test: Inhibition of FGFR2 (unknown origin) at 5.5 uM by Caliper Mobility Shift Assay
[17] = target: Tyrosine-protein kinase JAK1 (Homo sapiens) (UniProt P23458); test: Inhibition of JAK1 (unknown origin) at 5.5 uM by Caliper Mobility Shift Assay
Tyrosine-protein kinase JAK1 (Homo sapiens), sequence (P23458 whole entry): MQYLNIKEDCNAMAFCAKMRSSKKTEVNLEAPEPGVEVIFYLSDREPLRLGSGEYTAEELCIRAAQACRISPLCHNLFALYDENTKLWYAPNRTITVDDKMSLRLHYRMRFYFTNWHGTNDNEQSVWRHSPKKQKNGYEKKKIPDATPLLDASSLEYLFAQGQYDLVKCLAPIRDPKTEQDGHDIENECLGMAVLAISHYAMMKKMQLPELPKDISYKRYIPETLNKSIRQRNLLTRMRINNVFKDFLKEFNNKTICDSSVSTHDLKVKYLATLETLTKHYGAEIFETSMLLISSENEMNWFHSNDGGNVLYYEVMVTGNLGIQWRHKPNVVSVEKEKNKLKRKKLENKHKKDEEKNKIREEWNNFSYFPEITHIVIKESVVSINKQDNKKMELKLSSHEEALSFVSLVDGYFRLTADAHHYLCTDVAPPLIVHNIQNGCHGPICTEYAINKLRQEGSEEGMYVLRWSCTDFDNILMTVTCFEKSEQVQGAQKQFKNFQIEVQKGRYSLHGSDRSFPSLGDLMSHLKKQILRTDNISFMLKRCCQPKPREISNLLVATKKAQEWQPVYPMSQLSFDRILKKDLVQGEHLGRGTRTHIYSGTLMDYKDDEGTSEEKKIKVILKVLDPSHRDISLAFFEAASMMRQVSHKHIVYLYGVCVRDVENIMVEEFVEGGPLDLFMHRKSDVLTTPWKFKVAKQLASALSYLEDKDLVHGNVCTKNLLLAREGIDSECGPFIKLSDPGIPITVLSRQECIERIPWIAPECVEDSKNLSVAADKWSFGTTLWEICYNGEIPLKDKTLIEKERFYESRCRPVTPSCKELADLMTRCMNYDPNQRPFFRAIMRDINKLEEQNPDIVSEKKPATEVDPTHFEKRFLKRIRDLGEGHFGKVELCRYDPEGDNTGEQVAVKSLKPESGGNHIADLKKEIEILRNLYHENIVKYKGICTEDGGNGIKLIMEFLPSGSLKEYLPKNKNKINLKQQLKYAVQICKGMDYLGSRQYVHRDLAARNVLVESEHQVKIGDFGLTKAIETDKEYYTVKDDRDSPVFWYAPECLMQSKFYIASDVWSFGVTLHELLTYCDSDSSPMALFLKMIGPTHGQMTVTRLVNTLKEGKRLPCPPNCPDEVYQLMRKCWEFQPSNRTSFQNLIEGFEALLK

[18] = target: Tyrosine-protein kinase BTK (Homo sapiens) (UniProt Q06187); test: Inhibition of BTK (unknown origin) at 5.5 uM by Caliper Mobility Shift Assay
[19] = target: Mitogen-activated protein kinase kinase kinase 8 (Homo sapiens) (UniProt P41279); test: Inhibition of MAP3K8 (unknown origin) at 5.5 uM by Caliper Mobility Shift Assay
Mitogen-activated protein kinase kinase kinase 8 (Homo sapiens), sequence (P41279 whole entry): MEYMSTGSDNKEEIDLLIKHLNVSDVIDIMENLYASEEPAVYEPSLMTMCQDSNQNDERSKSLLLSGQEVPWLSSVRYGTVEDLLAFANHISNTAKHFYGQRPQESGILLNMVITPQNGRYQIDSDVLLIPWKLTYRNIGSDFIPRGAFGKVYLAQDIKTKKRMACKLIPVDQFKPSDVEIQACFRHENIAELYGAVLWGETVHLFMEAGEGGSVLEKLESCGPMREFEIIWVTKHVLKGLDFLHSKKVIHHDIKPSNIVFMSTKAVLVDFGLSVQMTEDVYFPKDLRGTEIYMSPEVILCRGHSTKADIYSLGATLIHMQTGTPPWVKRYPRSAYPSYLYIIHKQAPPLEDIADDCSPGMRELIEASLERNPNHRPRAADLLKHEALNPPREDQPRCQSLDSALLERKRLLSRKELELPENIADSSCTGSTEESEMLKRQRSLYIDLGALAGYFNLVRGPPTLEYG

inhibition [1] [%]	inhibition [2] [%]	inhibition [3] [%]	inhibition [4] [%]	inhibition [5] [%]	inhibition [6] [%]	inhibition [7] [%]	inhibition [8] [%]	inhibition [9] [%]	inhibition [10] [%]	inhibition [11] [%]	inhibition [12] [%]	inhibition [13] [%]	inhibition [14] [%]	inhibition [15] [%]	inhibition [16] [%]	inhibition [17] [%]	inhibition [18] [%]	inhibition [19] [%]	Structure (SMILES)
< 50	< 50	< 50	< 50	< 50	< 50	< 50	< 50	< 50	< 50	< 50	< 50	< 50	< 50	< 50	< 50	< 50	< 50	< 50	CC(=O)Nc1cc(-c2c(-c3ccc(F)cc3)nc(Sc3cccc(I)n3)n2C2CCCCC2)ccn1
< 50	< 50	< 50	< 50	< 50	< 50	< 50	< 50	< 50	< 50	< 50	< 50	< 50	< 50	< 50	< 50	< 50	< 50	< 50	CC(=O)Nc1cc(-c2c(-c3ccc(F)cc3)nc(S/C=C\C(=O)O)n2C2CCCCC2)ccn1

Continued, molecule first:

Structure (SMILES)	inhibition [1] [%]	inhibition [2] [%]	inhibition [3] [%]	inhibition [4] [%]	inhibition [5] [%]	inhibition [6] [%]	inhibition [7] [%]	inhibition [8] [%]	inhibition [9] [%]	inhibition [10] [%]	inhibition [11] [%]	inhibition [12] [%]	inhibition [13] [%]	inhibition [14] [%]	inhibition [15] [%]	inhibition [16] [%]	inhibition [17] [%]	inhibition [18] [%]	inhibition [19] [%]
CC(=O)Nc1cc(-c2c(-c3ccc(F)cc3)nc(S/C=C\C(=O)O)n2C2CC2)ccn1	< 50	< 50	< 50	< 50	< 50	< 50	< 50	< 50	< 50	< 50	< 50	< 50	< 50	< 50	< 50	< 50	< 50	< 50	< 50
CC(=O)Nc1cc(-c2c(-c3ccc(F)cc3)nc(S/C=C\C(=O)O)n2CC2CCCO2)ccn1 (racemic)	< 50	< 50	< 50	< 50	< 50	< 50	< 50	< 50	< 50	< 50	< 50	< 50	< 50	< 50	< 50	< 50	< 50	< 50	< 50
COC(Cn1c(SC2CCC(C(=O)O)CC2O)nc(-c2ccc(F)cc2)c1-c1ccnc(NC(C)=O)c1)OC (stereo not given)	< 50	< 50	< 50	< 50	< 50	< 50	< 50	< 50	< 50	< 50	< 50	< 50	< 50	< 50	< 50	< 50	< 50	< 50	< 50
